Laboratory results published in US12472166B2, “Inhibition of mycobacterial type VII secretion” (priority 2019, dated 2025).
Entries after “also recorded” stand apart in the source; their conditions may differ.

Legend:
Type in all cases: cell-based
[1] = system: ESX-5 dependent secretion
[2] = system: Apa (SEC dependent secretion)
[3] = system: PE_PGRS and EsxN (ESX-5 dependent secretion)

| Structure (SMILES) | effect on ESX-5 secretion activity (lipase DGGR vs viability REMA) [1] | further results |
| --- | --- | --- |
| O=C(CSc1nc(-c2ccccc2)ns1)NC1CCCC1 [Compound I-5] | significant reduction in lipase activity (substrate DGGR) before the bacterial viability (REMA) is affected |  |
| COc1ccc(-c2nsc(SCC(=O)NC3CCCC3)n2)cc1 [Compound I-12] |  | secretion of Apa [2]: did not affect secretion; secreted PE_PGRS proteins compared to DMSO control [3]: most drastic decrease; also recorded: secretion inhibition similar to the non-functional ESX-5 mutant; effect on secretion of the reporter lipase LipY when mspA was over-produced [1]: showed no changes; lipase secretion compared to DMSO treated control [1]: significant reduction of lipase secretion |
| COc1ccc(-c2nsc(SCC(=O)NCC3CCCC3)n2)cc1 [Compound I-38, reference compound] | do not affect the activity of ESX-5 |  |
| Cc1cccc(-c2nsc(SCC(=O)NCC3CCCO3)n2)c1 (stereo not shown) [Compound I-39, reference compound] | do not affect the activity of ESX-5 |  |
| CCOC(=O)CNC(=O)CSc1nc(-c2cccc(C)c2)ns1 [Compound I-40, reference compound] | affect ESX-5 secretion activity |  |
| CCOC(=O)CNC(=O)CSc1nc(-c2ccccc2)ns1 [Compound I-41, reference compound] | affect ESX-5 secretion activity |  |
| CO[C@H]1/C=C/O[C@@]2(C)Oc3c(C)c(O)c4c(O)c(c(/C=N/N5CCN(C)CC5)c(O)c4c3C2=O)NC(=O)/C(C)=C\C=C\[C@H](C)[C@H](O)[C@@H](C)[C@@H](O)[C@@H](C)[C@H](OC(C)=O)[C@@H]1C [Rifampin, reference compound] |  | lipase activity (DGGR) readout, control condition [1]: negative |
